Usually solubility stands for the dissolved amount per volume that the medium holds. One may read the logP as a log measure of how a compound divides between an organic and an aqueous phase. Read a low logP as a more hydrophilic compound. A word on the pKa: it is the pH at which an ionisable group is half protonated. What is called IC50 is the midpoint of a concentration-inhibition curve. Higher therefore signals lower potency.

Each structure is given as a SMILES string. Converted amounts (≈) assume the structure as drawn. Read-outs that look alike come from different tables or passages of the source.

Data set [1] is described as follows: Solubility in Octanol, water and pH media. The settings on record: 37° C. Format: physicochemical. The method, then: (§1) The solubility and log P of acetyl ChrysinMannich base derivatives see TABLE 1.
(§2) CH-j is pKa 5.3, log P 1.63 in Octanol/Water at 37° C. […] (BA-j 77m/ml). CH-j belongs to BCS II (low solubility, high permeability) and solubility presents the pH dependence. […] CH-j is a pH dependent fast release. […] It is speculated that CH-j has more appropriate log P and solubility with more likely entering tissue cells than others solubility acetyl Chrysin Mannich base derivatives.
(§3) (about 20 times BA-f 277 μg/ml) and 564 μg/ml in water at 37° C. (about 1000 times BA-f 0.53m/ml). CH-f is BCS I (high solubility and permeability) and solubility presents the pH dependence. It is speculated that CH-f has more appropriate log P and solubility with entering systemic (blood system and tissue cells) than others solubility acetyl Chrysin Mannich base derivatives.

Another data set is described as follows: log P in Octanol/Water. Format: physicochemical. The settings on record: octanol/water, Octanol/Water at 37° C. The method, then: as §1, §2, §3
The nature of the next data set: pKa. It counts as physicochemical. As for the experimental part:
as §2, §3

The subject of data set [2] is 5 cancers cells (MCF-7, H-460, BGC-823, PC-3, Hep G2). Description: Anti-cancer cells proliferation activity, average of 5 cancer cells. Format: cell-based. The settings on record: average of 5 cancer cells, MTT, 48 h. From the text: Anti-cancer cells proliferationactivity of in vitro CH-j and CH-f were shown in TABLE 2 for the results of the screening of 5 cancers cells.

For data set [3] the following is noted: Chrysin comparison value; cited from earlier work.
For data set [4] the following is noted: oral, liver first pass effect; cited from earlier work.
Another data set relates to Hep G2. Description: NaOCl level, BODTPY-OCl fluorescent probe imaging. Format: cell-based. The note with it: CH-j 40 μM or HCPT 5 μM for 4 h. As for the experimental part: In vitro cultured Hep G2 was given by BODTPY-OCl selective fluorescent probe 5 μM for 0.5 h, added CH-j 40 μM or HCPT 5 μM for 4 h, and performed fluorescence imaging.
A further data set relates to BGC-823. Description: Annexin V-FITC-PI double fluorescence, apoptosis and necrosis. It counts as cell-based. The note with it: 24 h. The text has this: There is a series of morphological characteristic changes in the apoptosis of cells, in which the change of the plasma membrane is one of the characteristics of early apoptosis. The cytoplasm is flipped from the inside of the cytoplasm to the outer surface of the cell when the cell apoptosis, Annexin V is a Ca^++ dependent phospholipid binding protein, which has a high affinity with phospholipid-peptide-serine, which can be combined with the phospholipid peptide specificity that is exposed to the extracellular cells. However, cytoplasm transfer to cell membrane is not unique to apoptosis, but also can occur in cell necrosis. The difference between the two cell death modes is that the cell membrane is intact in the initial stage of apoptosis, and the integrity of the cell membrane in its early stage is destroyed. PI is a nucleic acid dye that cannot pass through the intact cell membrane, but in the cell and necrotic cells in the middle and late stage of apoptosis, the PI can dye the nucleus through the cell membrane. Annexin V-FITC-PI was used to detect apoptosis and necrotic cell ratio on flow cytometry.
A relatively small increase in apoptotic cells is increased.
FIG. 3-3 Annexin V-FITC/PI staining results for BGC-823.

Where [5] appears, read: organic solvent or mixture, Octanol, read-out: Solubility in Octanol.
Where [6] appears, read: water, read-out: Solubility in H2O.

For `CC(=O)c1c(O)c(CN2CCCC2CO)c2oc(-c3ccccc3)cc(=O)c2c1O` (centres unmarked) [CH-h, 6-Acetyl-5,7-dihydroxy-8-(2-hydroxymethyl-pyrrolidin-1-ylmethyl)-2-phenyl-chromen-4-one], the solubility in data set [1] (setting [5]) was found to be 2550 µg/mL (≈ 6230 µM); in data set [1] (setting [6]), 43.4 µg/mL (≈ 106 µM). In the data set “log P in Octanol/Water”, this molecule showed a logP of 1.77. The molecule also returned a pKa in “pKa” of 5.4.
For the molecule `O=c1cc(-c2ccccc2)oc2cc(O)cc(O)c12` [Chrysin], in data set [2], half-maximal inhibition (IC50) was put at 30 µM. The Maximum drug concentration in data set [3] was 0.64 µM. Besides, in data set [4], the “Glucose aldehyde acid metabolism” value is given as above 95%.
Consider `CC(=O)c1c(O)c(CN2CCC(O)CC2)c(O)c2c(=O)cc(-c3ccccc3)oc12` [is-CH-j, 8-Acetyl-5,7-dihydroxy-6-(4-hydroxy-piperidin-1-ylmethyl)-2-phenyl-chromen-4-one], for which the solubility amounted to 3410 µg/mL (≈ 8330 µM) in data set [1] (setting [5]) and 52 µg/mL (≈ 127 µM) in data set [1] (setting [6]). The same molecule registered a logP in “log P in Octanol/Water” of 1.82. Besides, the pKa in the data set “pKa” came out at 4.5.
For `CC(=O)c1c(O)c(CN2CCOCC2)c2oc(-c3ccccc3)cc(=O)c2c1O` [CH-d, 6-Acetyl-5,7-dihydroxy-8-morpholin-4-ylmethyl-2-phenyl-chromen-4-one], the solubility in data set [1] (setting [5]) was 580 µg/mL (≈ 1470 µM); in data set [1] (setting [6]), 1.4 µg/mL (≈ 3.54 µM). In “log P in Octanol/Water”, the logP came out at 2.62. The molecule also gave a pKa in the data set “pKa” of 5.1.
With `CC[C@@]1(O)C(=O)OCc2c1cc1n(c2=O)Cc2cc3cc(O)ccc3nc2-1` [HCPT, reference compound], in the data set with Hep G2, the “NaOCl, yellow green fluorescence” value is “present fluorescence”. Besides, in the data set on BGC-823, the “Apoptosis and necrosis by Annexin V-FITC-PI” value was “induce apoptosis at low doses, and high dose can cause the inflammatory necrosis of early cells”.
As for `CN1CCN(Cc2c(O)c(O)c(O)c3c(=O)cc(-c4ccccc4)oc23)CC1` [BA-f, 5,6,7-trihydroxy-8-(4-methylpiperazin-1-ylmethyl)-2-phenyl-chromen-4-one, reference compound], the solubility came to 277 µg/mL (≈ 724 µM) in data set [1] (setting [5]); 0.53 µg/mL (≈ 1.39 µM) in data set [1] (water, text values of BA-j and BA-f, read-out: Solubility in water). Besides, in the data set “log P in Octanol/Water”, the logP is 1.7. This molecule returned a pKa in “pKa” of 5.6.
As for `CC(=O)c1c(O)c(CN2CCSCC2)c2oc(-c3ccccc3)cc(=O)c2c1O` [CH-e, 6-Acetyl-5,7-dihydroxy-2-phenyl-8-(thiomorpholin-4-ylmethyl)-2-phenyl-chromen-4-one], the solubility stood at 120 µg/mL (≈ 292 µM) in data set [1] (setting [5]) and 0.1 µg/mL (≈ 0.243 µM) in data set [1] (setting [6]). The molecule further had a logP in the data set “log P in Octanol/Water” of 3.08. The same molecule came in with a pKa in the data set “pKa” of 4.8.
The like results for `CC(=O)c1c(O)c(CN2CCN(CCO)CC2)c2oc(-c3ccccc3)cc(=O)c2c1O` [CH-i, 6-Acetyl-5,7-dihydroxy-8-[4-(2-hydroxy-ethyl)-piperazin-1-ylmethyl]-2-phenyl-chromen-4-one] were, in that order, 733 µg/mL (≈ 1670 µM), 6.2 µg/mL (≈ 14.1 µM), 2.07 and 4.8.

(Values after US10471054B2, “CDK1 inhibitors of acetyl chrysin mannich base derivatives, synthesis and use thereof” (priority 2016, dated 2019).)
